This is an account of results in publication PMC5814210, “2-Amino-3-methylcarboxy-5-heptyl-thiophene (TJ191) is a selective anti-cancer small molecule that targets low TβRIII-expressing malignant T-cell leukemia/lymphoma cells” (Oncotarget, 2017).

Like-named read-outs stand apart in the source and are kept apart here.

One data set has as its system HUT-78 cells. The experiment in a line: Proliferation assay, HUT-78 cells. The class given is cell-based, human. The method, then: (§1) PBMCs were isolated from Buffy coats obtained from healthy blood donors (after receiving informed consent) using lymphoprep according to the manufacturer’s instructions. PBMCs were then stimulated with interleukin-2 (2 ng/ml, R&D systems, Abingdon, UK) and phytohemagglutinin (2 µg/ml, Sigma-Aldrich) for three days and used in the experiments described below. Human T-cell leukemia/lymphoma cell lines CCRF-CEM (referred to as CEM), JURKAT, MOLT-3, MOLT-4, SUP-T1, MT-2, MT-4, C8166, HSB-2, and HUT-78 were obtained from ATCC (Middlesex, UK). Cells were cultured in RPMI-1640 medium supplemented with 10% fetal bovine serum (FBS, Gibco, Erembodegem, Belgium) and 2 mM L-glutamine (Gibco). […] After three days, cells were counted using the coulter cell counter (Analis, Belgium). The IC50 value refers to the compound concentration that causes 50% inhibition of cell growth.

The subject of a further data set is HSB-2 cells. As to the kind of experiment: Proliferation assay, HSB-2 cells. Conditions: three days, cell counting, read-out: IC50 (50% inhibition of cell growth). The class given is cell-based, human. The method, then:
as §1

A further data set deals with tumor cell lines. Details: method as in PMID 28365318. The settings on record: cited from earlier work.
Another data set concerns JURKAT cells. The experiment in a line: Proliferation assay, JURKAT cells. The class given is cell-based, human. The settings on record: three days, cell counting, read-out: IC50 (50% inhibition of cell growth). The method, then: as §1
For data set [1], the system named is CEM cells. The experiment in a line: Proliferation assay, CEM cells. The class given is cell-based, human. The settings on record: three days, cell counting, read-out: IC50 (50% inhibition of cell growth). The method, then: as §1
The next data set relates to MOLT-3 cells. As to the kind of experiment: Proliferation assay, MOLT-3 cells. The class given is cell-based, human. The settings on record: three days, cell counting, read-out: IC50 (50% inhibition of cell growth). The method, then:
as §1

Data set [2] concerns primary human fibroblasts. On the set-up: method as in PMID 28365318. Conditions: read-out: IC50, growth of primary human fibroblasts; cited from earlier work.
Data set [3] concerns PBMCs. On the set-up: method as in PMID 28365318. The settings on record: read-out: IC50, growth of PBMCs; cited from earlier work.
For data set [4], the system named is CEM cells. As to the kind of experiment: Apoptosis assay (caspase-3 activity, NucView substrate) in CEM cells. The class given is cell-based, human. The settings on record: 0.3 µM, 24 h. The method, then: Figure 1 Cytostatic and cytotoxic activity of TJ191 in T-cell leukemia/lymphoma cells (A) Chemical structure of TJ191. (B) Effect of TJ191 on the growth of human T-cell leukemia/lymphoma cell lines. (C) Pro-apoptotic effect of TJ191 in CEM cells. Cells were incubated with TJ191 for 8 h or 24 h and apoptosis was determined based on caspase-3 activity using the NucView […] Caspase-3 substrate, according to the manufacturer’s instruction, and fluorescence microscopy (Axiovert 200 M inverted microscope, Zeiss). Left panel, representative fluorescence microscopy images are shown; scale bars, 50 µm. Right panel, quantification of the apoptosis rate is shown. Bars represent the mean percentage of cells stained positive for caspase-3 of three different sections; bars, ± S.E.M. Data are representative of two independent experiments.
6 × 10^5 CEM cells/well were seeded into 96-well plates and treated with TJ191 in the presence of 2 µM NucView 488 caspase substrate (Biotium, Hayward, CA). When cells undergo apoptosis, the caspase substrate is cleaved by activated caspase-3/7 to release the DNA dye NucView 488, which stains the nucleus with bright green fluorescence. Cells were fixed at indicated times in 2% paraformaldehyde for 10 min at room temperature and analyzed for NucView 488 staining using a Carl Zeiss Axiovert 200 M inverted microscope (Zeiss, Göttingen, Germany).

The next data set relates to MT-4 cells. The experiment in a line: Proliferation assay, MT-4 cells. The class given is cell-based, human. Conditions: three days, cell counting, read-out: IC50 (50% inhibition of cell growth). The method, then:
as §1

For another data set, the system named is CEM-R cells. As to the kind of experiment: Proliferation assay, TJ191-selected resistant CEM cells (CEM-R). The class given is cell-based, human. The settings on record: selected one month at 100-fold IC50 concentration of TJ191; three days growth. How it is done: (§2) Human T-cell leukemia/lymphoma and prostate cancer cell lines were seeded into 96-well plates at a density of 60 × 10^3 and 20 × 10^3 cells/well respectively, and treated with 5-fold dilutions of TJ191, cladribine, 6-MP, ara-C, 6-TG, adriamycine or endoxan. 200 × 10^3 PBMCs/well were seeded and treated as indicated above. After three days, cells were counted using the coulter cell counter (Analis, Belgium). The IC50 value refers to the compound concentration that causes 50% inhibition of cell growth.

The test system of the next data set is C8166 cells. The experiment in a line: Proliferation assay, C8166 cells. The class given is cell-based, human. Conditions: three days, cell counting, read-out: IC50 (50% inhibition of cell growth). The method, then: as §1
Data set [5] deals with TβRIII KO1 and KO2 HUT-78 cells. As to the kind of experiment: Proliferation assay, TβRIII knock-out HUT-78 cells (KO1 and KO2). The class given is cell-based, human. The settings on record: three days, cell counting. How it is done: as §2
The next data set has as its system SUP-T1 cells. The experiment in a line: Proliferation assay, SUP-T1 cells. The class given is cell-based, human. The settings on record: three days, cell counting, read-out: IC50 (50% inhibition of cell growth). How it is done:
as §1

Another data set in a line: Water solubility. The class given is physicochemical. The settings on record: precludes in vivo testing.
A further data set relates to MOLT-4 cells. The experiment in a line: Proliferation assay, MOLT-4 cells. The class given is cell-based, human. Conditions: three days, cell counting, read-out: IC50 (50% inhibition of cell growth). The method, then: as §1
Another data set has as its system MT-2 cells. As to the kind of experiment: Proliferation assay, MT-2 cells. The class given is cell-based, human. The settings on record: three days, cell counting, read-out: IC50 (50% inhibition of cell growth). The method, then: as §1
The test system of data set [6] is PBMCs. As to the kind of experiment: Proliferation assay, PBMCs. The class given is cell-based, human. The settings on record: PBMCs stimulated with IL-2 and phytohemagglutinin, three days, cell counting, read-out: IC50 (50% inhibition of cell growth). The method, then:
PBMCs were isolated from Buffy coats obtained from healthy blood donors (after receiving informed consent) using lymphoprep according to the manufacturer’s instructions. PBMCs were then stimulated with interleukin-2 (2 ng/ml, R&D systems, Abingdon, UK) and phytohemagglutinin (2 µg/ml, Sigma-Aldrich) for three days and used in the experiments described below. Human T-cell leukemia/lymphoma cell lines CCRF-CEM (referred to as CEM), JURKAT, MOLT-3, MOLT-4, SUP-T1, MT-2, MT-4, C8166, HSB-2, and HUT-78 were obtained from ATCC (Middlesex, UK). Cells were cultured in RPMI-1640 medium supplemented with 10% fetal bovine serum (FBS, Gibco, Erembodegem, Belgium) and 2 mM L-glutamine (Gibco).
as §2

For the compound “2-amino-3-methylcarboxy-5-heptyl-thiophene [TJ191]”, the IC50 with HUT-78 cells (HUT-78 cells (parental), three days, cell counting, read-out: IC50 (50% inhibition of cell growth)) is 17 ± 10 µM; in the data set with HSB-2 cells it was 0.26 ± 0.16 µM; in the data set with tumor cell lines (drug-insensitive tumor cell lines, read-out: IC50 in drug-insensitive tumor cell lines), approximately 60 µM; in the data set on tumor cell lines (drug-sensitive tumor cell lines, read-out: IC50 in drug-sensitive tumor cell lines), approximately 0.1 µM; in the data set on JURKAT cells it was 0.13 ± 0.08 µM; in the data set with CEM cells [1] it was 0.13 ± 0.02 µM. Moreover, the IC50 with MOLT-3 cells is 0.26 ± 0.19 µM; in [2], more than 100 µM; with PBMCs [3] it was more than 100 µM; with MT-4 cells, 47 ± 5 µM; with C8166 cells it was 3.1 ± 0.5 µM; in the data set with SUP-T1 cells it was 1.5 ± 0.02 µM. Moreover, the IC50 turned out to be 0.22 ± 0.11 µM with MOLT-4 cells and 0.32 ± 0.086 µM with MT-2 cells. For the same compound, the “Fold less sensitive, parental HUT-78 versus CEM cells” value in the data set with HUT-78 cells (ratio of IC50 HUT-78 to IC50 CEM) was 130 fold. Moreover, in the data set on CEM cells [4], the “Maximum apoptotic rate (cells positive for caspase-3)” value was approximately 80%. The “Reduced sensitivity of CEM-R compared with wild-type CEM” value with CEM-R cells is approximately 100 fold. Further, the “Change of IC50 in TβRIII KO1 and KO2 cells compared with parental or scrambled control HUT-78 cells” value in data set [5] was “reduced at least four- to five-fold”. The Water solubility entry in the data set “Water solubility” is on record as “relative water insolubility”.
As for `Nc1nc2nc[nH]c2c(=S)[nH]1` [6-TG, 6-thioguanine], the IC50 in the data set with PBMCs [6] (Homo sapiens, PBMC, 72 h) came out at 0.57 ± 0.27 µM.
In the case of `COc1cccc2c1C(=O)c1c(O)c3c(c(O)c1C2=O)C[C@@](O)(C(=O)CO)C[C@@H]3O[C@H]1C[C@H](N)[C@H](O)[C@H](C)O1` [adriamycine], the IC50 in the data set on PBMCs [6] is 0.079 ± 0.062 µM.
In the case of `Nc1ccn([C@@H]2O[C@H](CO)[C@@H](O)[C@@H]2O)c(=O)n1` [ara-C, 1-β-D-arabinofuranosyl cytosine], the IC50 in the data set on PBMCs [6] (Homo sapiens, PBMC, 72 h) came to 0.88 ± 0.6 µM.
As for `Nc1nc(Cl)nc2c1ncn2[C@H]1C[C@H](O)[C@@H](CO)O1` [cladribine, Cladribine], the IC50 with PBMCs [6] (Homo sapiens, PBMC, 72 h) was 0.18 ± 0.09 µM.
As for `O=P1(N(CCCl)CCCl)NCCCO1` (stereo not drawn) [endoxan, cyclophosphamide, reference compound], the “Change of IC50 in TβRIII KO1 and KO2 cells compared with parental or scrambled control HUT-78 cells” value in data set [5] was “no significant difference”.

In general, IC50 refers to the point on the concentration scale where inhibition reaches its midpoint.
